Tests used:
Test in all cases: Postemergence foliar-applied weed control, direct-seeded rice (greenhouse)
LEFCH = format: in vivo, Leptochloa chinensis (L.) Nees (Chinese sprangletop); conditions: 21 DAA
Description: (§1) Seeds or nutlets of the desired test plant species were planted in a soil matrix prepared by mixing aloam or sandy loam soil (e.g., 28.6 percent silt, 18.8 percent clay, and 52.6 percent sand, with a pH of about 5.8 and an organic matter content of about 1.8 percent) and calcareous grit in an 80 to 20 ratio. The soil matrix was contained in plastic pots with a volume of 1 quart and a surface area of 83.6 square centimeters (cm^2). […] The plants were grown for 8-22 days in a greenhouse with an approximate 14 hour (h) photoperiod which was maintained at about 29° C. during the day and 26° C. during the night. Nutrients (Peters Excel® 15-5-15 5-Ca 2-Mg and iron chelate) were applied in the irrigation solution as needed and water was added on a regular basis. Supplemental lighting was provided with overhead metal halide 1000-Watt lamps as necessary. The plants were employed for testing when they reached the first through fourth true leaf stage.
(§2) Treatments consisted of the acid or esters of 4-amino-3-chloro-5-fluoro-6-(4-chloro-2-fluoro-3-methoxy-phenyl)pyridine-2-carboxylic acid (Compound A), each formulated as an SC (suspension concentrate), and various fungicidal components alone and in combination. Forms of compound A were applied on an acid equivalent basis.
(§3) For treatments comprised of formulated compounds, measured amounts of compounds were placed individually in 25 mL glass vials and diluted in a volume of 1.25% volume per volume (v/v) Agri-Dex® crop oil concentrate to obtain 12× stock solutions. […] Application solutions were prepared by adding an appropriate amount of each stock solution (e.g., 1 mL) and diluted to the appropriate final concentrations with the addition of […] of an aqueous mixture of 1.25% (v/v) crop oil concentrate so that the final spray solutions contained 1.25+/−0.05% (v/v) crop oil concentrate.
(§4) For treatments comprised of technical compounds, weighed amounts can be placed individually in 25 mL glass vials and dissolved in a volume of 97:3 volume per volume (v/v) acetone/dimethyl sulfoxide (DMSO) to obtain 12× stock solutions. […] When technical materials are used, the concentrated stock solutions can be added to the spray solutions so that the final acetone and DMSO concentrations of the application solutions are 16.2% and 0.5%, respectively.
(§5) As required, additional water and/or 97:3 v/v acetone/DMSO was added to individual application solutions so that the final acetone and DMSO concentrations of the application solutions being compared were 8.1% and 0.25%, respectively
(§6) All stock solutions and applications solutions were visually inspected for compound compatibility prior to application. Spray solutions were applied to the plant material with an overhead Mandel track sprayer equipped with 8002E nozzles calibrated to deliver 187 L/ha over an application area of 0.503 square meters (m^2) at a spray height of 18 to 20 inches (46 to 50 cm) above average plant canopy height. Control plants were sprayed in the same manner with the solvent blank.
(§7) The treated plants and control plants were placed in a greenhouse as described above and watered by sub-irrigation to prevent wash-off of the test compounds. After approximately 3 weeks, the condition of the test plants as compared with that of the untreated plants was determined visually and scored on a scale of 0 to 100 percent where 0 corresponds to no injury or growth inhibition and 100 corresponds to complete kill.
(§8) Colby's equation was used to determine the herbicidal effects expected from the mixtures (Colby, S. R. Calculation of the synergistic and antagonistic response of herbicide combinations. Weeds 1967, 15, 20-22.).
(§9) The following equation was used to calculate the expected activity of mixtures containing two active ingredients, A and B: Expected=A+B−(A×B/100)

CYPIR = format: in vivo, Cyperus iria L. (rice flatsedge); conditions: 21 DAA
Description: as §1, §2, §3, §4, §5, §6, §7, §8, §9

BRAPP = format: in vivo; conditions: 21 DAA, r29-30 ester 8/16 g ae/ha alone, r31-33 hexaconazole 25/50/100 g ai/ha alone, r34-39 ester 8/16 at each of 25, 50, 100
Excerpt: (§10) Seeds or nutlets of the desired test plant species were planted in a soil matrix prepared by mixing aloam or sandy loam soil (e.g., 28.6 percent silt, 18.8 percent clay, and 52.6 percent sand, with a pH of about 5.8 and an organic matter content of about 1.8 percent) and calcareous grit in an 80 to 20 ratio. The soil matrix was contained in plastic pots with a volume of 1 quart and a surface area of 83.6 square centimeters (cm^2). When required to ensure good germination and healthy plants, a fungicide treatment and/or other chemical or physical treatment was applied. The plants were grown for 8-22 days in a greenhouse with an approximate 14 hour (h) photoperiod which was maintained at about 29° C. during the day and 26° C. during the night. Nutrients (Peters Excel® 15-5-15 5-Ca 2-Mg and iron chelate) were applied in the irrigation solution as needed and water was added on a regular basis. Supplemental lighting was provided with overhead metal halide 1000-Watt lamps as necessary. The plants were employed for testing when they reached the first through fourth true leaf stage.
as §2
(§11) Treatment requirements were calculated based upon the rates being tested, the concentration of active ingredient or acid equivalent in the formulation and a 12 milliliter (mL) application volume at a rate of 187 liters per hectare (L/ha).
as §3, §4, §5, §6
as §7, with “kill. […]” for “kill.”

ECHCG = format: in vivo, Echinochloa crus-galli (L.) P. Beauv. (barnyardgrass); conditions: r9-11 ester 8/16/32 g ae/ha alone, r12-14 hexaconazole 25/50/100 g ai/ha alone, r15-23 ester 8/16/32 at each of 25, 50, 100
Description: as §1, §2, §3, §4, §5, §6, §7, §8, §9

ECHCO = format: in vivo, Echinochloa colonum (L.) LINK (junglerice); conditions: 21 DAA, r9-11 ester 8/16/32 g ae/ha alone, r12-14 hexaconazole 25/50/100 g ai/ha alone, r15-23 ester 8/16/32 at each of 25, 50, 100
Excerpt: as §10, §2, §11, §3, §4, §5, §6
as §7, with “kill. […]” for “kill.”

IPOHE = format: in vivo, Ipomoea hederacea (L.) Jacq. (ivyleaf morningglory); conditions: r29-30 ester 8/16 g ae/ha alone, r31-33 hexaconazole 25/50/100 g ai/ha alone, r34-39 ester 8/16 at each of 25, 50, 100
Description: as §1, §2, §3, §4, §5, §6, §7, §8, §9

CYPES = format: in vivo, Cyperus esculentus L. (yellow nutsedge); conditions: r10-12 ester 8/16/32 g ae/ha alone, r13-14 isoprothiolane 266/533 g ai/ha alone, r15-20 ester 8/16/32 at each of 266, 533
Description: as §1, §2, §3, §4, §5, §6
as §7, with “kill. […]” for “kill.”

CCCCC(O)(Cn1cncn1)c1ccc(Cl)cc1Cl (racemic) [Hexaconazole, reference compound]
0%: Visual Weed Control (%)—21 DAA LEFCH Obs (LEFCH; r9-11 ester 8/16/32 g ae/ha alone, r12-14 hexaconazole 25/50/100 g ai/ha alone, r15-23 ester 8/16/32 at each of 25, 50, 100) | Visual Weed Control (%)—21 DAA CYPIR Obs (CYPIR; r45 ester 8 g ae/ha alone, r46-48 hexaconazole 25/50/100 g ai/ha alone, r49-51 ester 8 + 25/50/100) | Visual Weed Control (%)—21 DAA BRAPP Obs (BRAPP) | Visual Weed Control (%)—21 DAA ECHCG Obs (ECHCG) | Visual Weed Control (%)—21 DAA ECHCO Obs (ECHCO) | Visual Weed Control (%)—21 DAA IPOHE Obs (IPOHE)

CC(C)OC(=O)C(C(=O)OC(C)C)=C1SCCS1 [Isoprothiolane, diisopropyl 1,3-dithiolan-2-ylidenemalonate, reference compound]
0%: Visual Weed Control (%) - 21 DAA LEFCH Obs (LEFCH; r10-12 ester 8/16/32 g ae/ha alone, r13-14 isoprothiolane 266/533 g ai/ha alone, r15-20 ester 8/16/32 at each of 266, 533) | Visual Weed Control (%) - 21 DAA CYPES Obs (CYPES) | Visual Weed Control (%) - 21 DAA CYPIR Obs (CYPIR; r26-27 ester 16/32 g ae/ha alone, r28-29 isoprothiolane 266/533 g ai/ha alone, r30-33 ester 16/32 at each of 266, 533)

From patent US9730445B2, “Herbicidal compositions comprising 4-amino-3-chloro-5-fluoro-6-(4-chloro-2-fluoro-3-methoxyphenyl) pyridine-2-carboxylic acid or a derivative thereof and fungicides” (DOW AGROSCIENCES LLC, priority 2013, dated 2017)
